Experimental findings from US20100137313A1 (ASTRAZENECA AB, priority 2008, published 2010) are described below.

The target in one test is S. pneumoniae Topoisomerase IV ATPase (ParE) (Streptococcus pneumoniae serotype 4, UniProt Q59961). Briefly: S. pneumoniae Topoisomerase IV ATPase inhibition. To be noted: values marked * are an average of two or more data points, 13 µM. In kind it is biochemical. In short, it runs like this: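 ParE ATPase (1.25 nM) run with 160 μM ATP and 5 μg/ml sheared salmon sperm DNA in Tris pH 8.0, Mg2+, glycerol, DTT, Brij-35. Phosphate released read by malachite green/molybdate absorbance at 650 nm. IC50 from 10 compound concentrations; DMSO (2%) as 0% and EDTA (20 μM) as 100% inhibition.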
Chain of S. pneumoniae Topoisomerase IV ATPase (ParE) (Q59961 whole entry): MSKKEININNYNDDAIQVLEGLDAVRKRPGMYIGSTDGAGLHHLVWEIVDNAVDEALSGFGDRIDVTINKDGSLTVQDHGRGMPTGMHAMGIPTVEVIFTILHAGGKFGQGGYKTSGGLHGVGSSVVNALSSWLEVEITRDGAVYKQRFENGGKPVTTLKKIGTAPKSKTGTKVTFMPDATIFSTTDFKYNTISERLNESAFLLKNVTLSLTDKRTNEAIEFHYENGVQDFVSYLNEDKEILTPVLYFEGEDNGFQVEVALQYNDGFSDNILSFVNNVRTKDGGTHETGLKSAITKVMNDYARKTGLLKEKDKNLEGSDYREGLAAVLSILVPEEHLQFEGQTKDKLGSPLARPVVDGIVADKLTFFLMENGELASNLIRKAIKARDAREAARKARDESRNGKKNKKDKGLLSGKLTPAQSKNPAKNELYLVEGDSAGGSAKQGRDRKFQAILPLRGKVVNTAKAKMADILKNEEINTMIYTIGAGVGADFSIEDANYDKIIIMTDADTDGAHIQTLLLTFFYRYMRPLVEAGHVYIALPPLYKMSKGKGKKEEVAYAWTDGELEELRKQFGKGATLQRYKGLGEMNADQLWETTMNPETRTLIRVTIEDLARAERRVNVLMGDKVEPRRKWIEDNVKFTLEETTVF
For `COc1ccc(C(=O)O)cc1-c1cnc(Nc2ccc(F)c(Cl)c2)nc1-n1ccc(C(F)(F)F)n1` [Example 1128, 3-(2-(3-chloro-4-fluorophenylamino)-4-(3-(trifluoromethyl)-1H-pyrazol-1-yl)pyrimidin-5-yl)-4-methoxybenzoic acid], the “% Inh (13 μM) of S. pneumoniae Topoisomerase IV ATPase” value was 67%.

The same test, now with this note: values marked * are an average of two or more data points, read-out: % Inh (13 μM) of S. pneumoniae Topoisomerase IV ATPase.
`CCOC(=O)c1cn(CCOC)c2ccc(-c3cnc(Nc4ccc(F)c(Cl)c4)nc3NCCCOC)cc2c1=O` [Example 177, ethyl 6-(2-(3-chloro-4-fluorophenylamino)-4-(3-methoxypropylamino)-pyrimidin-5-yl)-1-(2-methoxyethyl)-4-oxo-1,4-dihydroquinoline-3-carboxylate]: the inhibition at 13 µM is 68.9%.

On to `CNC(=O)c1cc(-c2cnc(Nc3ccc(F)c(Cl)c3)nc2-n2nc(C(F)(F)F)cc2C)cnc1OC` [Example 1103, 5-(2-(3-chloro-4-fluorophenylamino)-4-(5-methyl-3-(trifluoromethyl)-1H-pyrazol-1-yl)pyrimidin-5-yl)-2-methoxy-N-methylnicotinamide], for which the inhibition at 13 µM is 76%.

In the case of `CS(=O)(=O)N1CCN(c2nc(Nc3ccc(F)c(Cl)c3)ncc2-c2cccc(/C=C/C(=O)O)c2)CC1` [Example 302, (E)-3-(3-(2-(3-chloro-4-fluorophenylamino)-4-(4-(methylsulfonyl)piperazin-1-yl)pyrimidin-5-yl)phenyl)acrylic acid], the inhibition at 13 µM amounted to 83%.

Take `Cc1cc(F)cc(Nc2ncc(-c3cncc(C(=O)O)c3)c(-n3nc(C(F)(F)F)cc3C)n2)c1` [Example 771, 5-{2-[(3-fluoro-5-methylphenyl)-amino]-4-[5-methyl-3-(trifluoromethyl)-1H-pyrazol-1-yl]pyrimidin-5-yl}pyridine-3-carboxylic acid]: the inhibition at 13 µM is 100%.

Consider `O=C(O)c1ccc(-c2cnc(Nc3ccc(F)c(Cl)c3)nc2-n2ccnc2)s1` [Example 1111, 5-[2-[(3-chloro-4-fluorophenyl)-amino]-4-imidazol-1-ylpyrimidin-5-yl]thiophene-2-carboxylic acid], for which the inhibition at 13 µM is 88%.

As to `O=C(O)CCC(=O)Nc1cccc(-c2cnc(Nc3ccc(F)c(Cl)c3)nc2N2CCOCC2)c1` [Example 482, 4-[(3-{2-[(3-chloro-4-fluorophenyl)amino]-4-(morpholin-4-yl)pyrimidin-5-yl}phenyl)amino]-4-oxobutanoic acid], the inhibition at 13 µM stood at 99%.

Regarding `CCOC(=O)c1cncc(-c2cnc(Nc3ccc(F)c(Cl)c3)nc2N2CCC(NC(C)=O)CC2)c1` [Example 129, ethyl 5-[4-(4-acetamidopiperidin-1-yl)-2-[(3-chloro-4-fluorophenyl)amino]pyrimidin-5-yl]pyridine-3-carboxylate], the inhibition at 13 µM was 74.9%.

As to `COc1ncc(-c2cnc(Nc3cc(C)cc(Cl)c3)nc2-n2ccc(C(F)(F)F)n2)cc1C(=O)O` [Example 799, 5-{2-[(3-chloro-5-methylphenyl)amino]-4-[3-(trifluoromethyl)-1H-pyrazol-1-yl]pyrimidin-5-yl}-2-methoxypyridine-3-carboxylic acid], the inhibition at 13 µM worked out at 100%.

Turning to `CN(C)C(=O)N1CCN(c2nc(Nc3ccc(F)c(Cl)c3)ncc2-c2cccc(/C=C/C(=O)O)c2)CC1` [Example 291, (E)-3-(3-(2-(3-chloro-4-fluorophenylamino)-4-(4-(dimethylcarbamoyl)-piperazin-1-yl)pyrimidin-5-yl)phenyl)acrylic acid], the inhibition at 13 µM was 90.1%.

With `COc1cc(Nc2ncc(-c3cnc(OC)c(C(=O)O)c3)c(-n3nc(C(F)(F)F)nc3C)n2)cc(OC)c1` [Example 1144, 5-(2-(3,5-dimethoxyphenylamino)-4-(5-methyl-3-(trifluoromethyl)-1H-1,2,4-triazol-1-yl)pyrimidin-5-yl)-2-methoxynicotinic acid], the inhibition at 13 µM worked out at 100%.

For the compound `Cc1cc(C(F)(F)F)nn1-c1nc(Nc2ccc(F)c(Cl)c2)ncc1-c1c[nH]c(=O)c(C(=O)O)c1` [Example 1094, 5-(2-(3-Chloro-4-fluorophenylamino)-4-(5-methyl-3-(trifluoromethyl)-1H-pyrazol-1-yl)pyrimidin-5-yl)-2-oxo-1,2-dihydropyridine-3-carboxylic acid], the inhibition at 13 µM came out at 99%.

Consider `COc1ncc(-c2cnc(Nc3ccc(F)c(Cl)c3)nc2N[C@H]2CCOC2)cn1` [Example 941, (S)-N2-(3-chloro-4-fluorophenyl)-2′-methoxy-N4-(tetrahydrofuran-3-yl)-5,5′-bipyrimidine-2,4-diamine], for which the inhibition at 13 µM came out at 54%.

Turning to `COc1cc(Nc2ncc(-c3ccc4c(c3)C(=O)NS4(=O)=O)c(-n3nc(C(F)(F)F)cc3C)n2)cc(OC)c1` [Example 830, 5-{2-[(3,5-dimethoxyphenyl)amino]-4-[5-methyl-3-(trifluoromethyl)-1H-pyrazol-1-yl]pyrimidin-5-yl}-1,2-benzothiazol-3(2H)-one 1,1-dioxide], the inhibition at 13 µM was determined as 100%.

Turning to `COc1cc(Cl)cc(Nc2ncc(-c3cnc(OC)c(C(=O)O)c3)c(-n3ccc(C(F)(F)F)n3)n2)c1` [Example 758, 5-{2-[(3-chloro-5-methoxyphenyl)amino]-4-[3-(trifluoromethyl)-1H-pyrazol-1-yl]pyrimidin-5-yl}-2-methoxypyridine-3-carboxylic acid], the inhibition at 13 µM came to 98%.

Regarding `COc1cc(Nc2ncc(-c3cnc(N(C)C)c(C(=O)O)c3)c(-n3ccc(C(F)(F)F)n3)n2)cc(OC)c1` [Example 587, 5-(2-(3,5-dimethoxyphenylamino)-4-(3-(trifluoromethyl)-1H-pyrazol-1-yl)pyrimidin-5-yl)-2-(dimethylamino)nicotinic acid], the inhibition at 13 µM came to 100%.

As to `COc1cc(Nc2ncc(-c3cnc(SC)c(C(=O)NS(C)(=O)=O)c3)c(-n3ccc(C(F)(F)F)n3)n2)cc(OC)c1` [Example 852, 5-{2-[(3,5-dimethoxyphenyl)amino]-4-[3-(trifluoromethyl)-1H-pyrazol-1-yl]pyrimidin-5-yl}-2-(methylsulfanyl)-N-(methylsulfonyl)pyridine-3-carboxamide], the inhibition at 13 µM is 100%.

In the case of `O=C(O)c1cc(-c2cnc(Nc3ccc(F)c(Cl)c3)nc2-n2ccc(C(F)(F)F)n2)cnc1OCC(F)(F)F` [Example 1135, 5-(2-(3-chloro-4-fluorophenylamino)-4-(3-(trifluoromethyl)-1H-pyrazol-1-yl)pyrimidin-5-yl)-2-(2,2,2-trifluoroethoxy)nicotinic acid], the inhibition at 13 µM was determined as 100%.

Turning to `COc1cc(Nc2ncc(-c3cncnc3)c(N[C@@H]3CCOC3)n2)cc(OC)c1` [Example 358, (R)-N^2-(3,5-dimethoxyphenyl)-N^4-(tetrahydrofuran-3-yl)-5,5′-bipyrimidine-2,4-diamine], the inhibition at 13 µM was 63%.

Regarding `O=S(=O)(NCCO)c1cccc(-c2cnc(Nc3ccc(F)c(Cl)c3)nc2-n2ccc(C(F)(F)F)n2)c1` [Example 997, 3-(2-(3-Chloro-4-fluorophenylamino)-4-(3-(trifluoromethyl)-1H-pyrazol-1-yl)pyrimidin-5-yl)-N-(2-hydroxyethyl)benzenesulfonamide], the inhibition at 13 µM came to 100%.

As for `COc1cc(Nc2ncc(-c3cnc(OC)c(C(=O)NS(=O)(=O)c4sc(NC(C)=O)nc4C)c3)c(-n3nc(C(F)(F)F)cc3C)n2)cc(OC)c1` [Example 834, N-{[2-(acetylamino)-4-methyl-1,3-thiazol-5-yl]sulfonyl}-5-{2-[(3,5-dimethoxyphenyl)amino]-4-[5-methyl-3-(trifluoromethyl)-1H-pyrazol-1-yl]pyrimidin-5-yl}-2-methoxypyridine-3-carboxamide], the inhibition at 13 µM amounted to 98%.

For the compound `COc1ncc(-c2cnc(Nc3ccc(F)c(Cl)c3)nc2-n2ccc(C(F)(F)F)n2)cc1CO` [Example 1027, (5-(2-(3-chloro-4-fluorophenylamino)-4-(3-(trifluoromethyl)-1H-pyrazol-1-yl)pryimidin-5-yl)-2-methoxypyridin-3yl)methanol], the inhibition at 13 µM came to 94%.

Take `CC1CCCN1c1nc(Nc2ccc(F)c(Cl)c2)ncc1-c1cncc(C(=O)O)c1` (stereo not shown) [Example 251, 5-[2-[(3-chloro-4-fluorophenyl)amino]-4-(2-methylpyrrolidin-1-yl)pyrimidin-5-yl]pyridine-3-carboxylic acid]: the inhibition at 13 µM came out at 79.9%.

Consider `N#Cc1cc(Cl)cc(Nc2ncc(-c3cccc(/C=C/C(=O)O)c3)c(N3CCOCC3)n2)c1` [Example 408, (E)-3-{3-[2-(3-Chloro-5-cyano-phenylamino)-4-morpholin-4-yl-pyrimidin-5-yl]-phenyl}-acrylic acid], for which the inhibition at 13 µM stood at 100%.

As to `CN1CCN(c2nc(Nc3ccc(F)c(Cl)c3)ncc2-c2cccc(/C=C/C(=O)O)c2)CC1` [Example 301, (E)-3-(3-(2-(3-chloro-4-fluorophenylamino)-4-(4-methylpierazin-1-yl)pyrimidin-5-yl)phenyl)acrylic acid], the inhibition at 13 µM is 72.2%.

For `O=C(O)c1cncc(-c2cnc(Nc3ccc(F)c(Cl)c3)nc2-n2nc(C(F)F)cc2C(F)F)c1` [Example 532, 5-{4-[3,5-bis(difluoromethyl)-1H-pyrazol-1-yl]-2-[(3-chloro-4-fluorophenyl)amino]-pyrimidin-5-yl}pyridine-3-carboxylic acid], the inhibition at 13 µM stood at 100%.

Take `COc1cc(Nc2ncc(-c3cc(C(=O)O)c(=O)n(CCS(C)(=O)=O)c3)c(-n3nc(C(F)(F)F)cc3C)n2)cc(OC)c1` [Example 1097, 5-(2-(3,5-Dimethoxyphenylamino)-4-(5-methyl-3-(trifluoromethyl)-1H-pyrazol-1-yl)pyrimidin-5-yl)-1-(2-(methylsulfonyl)ethyl)-2-oxo-1,2-dihydropyridine-3-carboxylic acid]: the inhibition at 13 µM was determined as 100%.

With `CN(C)CCCNc1nc(Nc2ccc(F)c(Cl)c2)ncc1-c1ccc(N)nc1` [Example 21, 5-(6-aminopyridin-3-yl)-N^2-(3-chloro-4-fluorophenyl)-N^4-[3-(dimethylamino)propyl]pyrimidine-2,4-diamine], the inhibition at 13 µM amounted to 71.7%.
